# According to BindingDB's records for patent US20240376119 (Cspc Zhongqi Pharmaceutical Technology (Shijiazhuang), 2024):
# Biological target: T1, Tyrosine-protein phosphatase non-receptor type 11 (Homo sapiens, UniProt Q06124)
# T1 sequence (Q06124 whole entry): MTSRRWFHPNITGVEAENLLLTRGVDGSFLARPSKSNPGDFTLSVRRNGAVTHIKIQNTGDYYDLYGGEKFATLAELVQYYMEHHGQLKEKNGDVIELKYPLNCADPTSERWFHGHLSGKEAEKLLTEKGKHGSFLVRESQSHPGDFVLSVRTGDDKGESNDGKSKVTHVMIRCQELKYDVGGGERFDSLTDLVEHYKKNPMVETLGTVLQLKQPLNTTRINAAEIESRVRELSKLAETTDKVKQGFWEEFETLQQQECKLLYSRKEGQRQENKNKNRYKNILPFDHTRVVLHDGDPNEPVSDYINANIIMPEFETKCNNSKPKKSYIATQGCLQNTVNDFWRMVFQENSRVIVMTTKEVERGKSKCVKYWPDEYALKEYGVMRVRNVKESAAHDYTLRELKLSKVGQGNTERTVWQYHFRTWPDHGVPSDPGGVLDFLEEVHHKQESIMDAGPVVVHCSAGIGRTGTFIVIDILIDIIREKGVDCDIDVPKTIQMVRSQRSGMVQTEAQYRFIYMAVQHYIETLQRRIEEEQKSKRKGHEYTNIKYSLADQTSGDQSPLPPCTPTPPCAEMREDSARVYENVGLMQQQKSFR
# Assay: Assay for the inhibitory effect on the SHP2 enzyme
# Experimental: A mixed liquor of 2× working SHP2 reagent (0.4 nM) and 0.5 μM SHP-2 activated peptide (BPS bioscience #79319-2) was prepared with 1× enzyme buffer. After the above-mixed liquor was incubated at 25° C. for 60 minutes, 5 μL of activated SHP2 kinase solution was transferred with a pipettor to the compound wells and the Max control wells (Corning, #4514) of the plate. Then 5 μL of 1× kinase buffer was transferred to the Min control wells. The plate was centrifuged at 1000 rpm for 30 seconds, sealed, and incubated in a 25° C. constant-temperature incubator for 30 minutes. A substrate solution of DiFMUP (#D6567, Invitrogen™) was prepared with 1× kinase buffer, and its concentration should be 2 times as the final concentration of the assay (DiFMUP final concentration: 10 μM). 5 μL of the prepared substrate solution was transferred with an electric pipettor into each well of the ELISA plate to start the reaction. The plate was centrifuged at 1000 rpm for 30 seconds, sealed, and incubated in a 25° C. constant-temperature incubator for 60 minutes. Read the plate at the excitation/emission wavelength of 358/455 nm after the ELISA plate was placed on the Spark machine.
smiles,measurement,value
"COC(=O)c1nc(Sc2cccc(-c3ccn(C)n3)c2Cl)cnc1N1CCC2(CC1)Cc1ccccc1[C@H]2N [US20240376119, Example 19]",IC50,in the range around 20 nM
